Data published in article PMC10850047, “Exploring the impact of PEGylation on pharmacokinetics: a size-dependent effect of polyethylene glycol on prostate-specific membrane antigen inhibitors” (EJNMMI Research, 2024).
Like-named read-outs stand apart in the source and are kept apart here.

How the values were obtained:
[1] = Radiochemical stability in PBS at 37 °C; format: physicochemical; conditions: 2 h
Procedure: (§1) The radiochemical purity of samples incubated in PBS at each time point was determined using RP-HPLC. For the samples in human serum, a pretreatment step was applied. Briefly, the human serum samples underwent precipitation with acetonitrile, and the radiochemical purity of each supernatant aliquot was determined using RP-HPLC after centrifugation for 5 min at 10,000 rpm. The experiments were performed in triplicate.

[2] = Radiochemical stability in human serum at 37 °C; format: in vitro ADME; conditions: 2 h
Procedure: as §1

[3] = system: PC3-PIP tumor-bearing balb/c-nu mice; assay: Biodistribution in PC3-PIP tumor model; format: in vivo; conditions: mean ± SD (n=5)
Procedure: All animal experiments were performed with the approval of the institutional animal ethics committee. Male NOD/SCID mice (5 − 6 weeks old) implanted with LNCaP cells were used for imaging and biodistribution experiments as previously described. The mice were imaged or used in biodistribution studies once the tumor grew to 8 − 10 mm in diameter over a period of 4 − 5 weeks. At the same time, male balb/c-nu mice (5 − 6 weeks old) implanted with PC3-PIP cells were used as an alternative tumor model for imaging and biodistribution experiments.
To conduct biodistribution studies, male mice bearing LNCaP or PC3-PIP tumors with an average body weight of approximately 20 ± 5 g and a tumor diameter of 8 − 10 mm were administered a bolus injection of 2.5 MBq of the corresponding radioligand via the tail vein. After 30, 60, and 120 min, the mice were anesthetized with isoflurane and subsequently euthanized by CO2 asphyxiation. Blood was drawn, and the organs of interest were promptly harvested, blotted dry, and weighed. The radioactivity of the collected mouse organs was measured and expressed as the percentage of the injected dose per gram of tissue (%ID/g). Each group consisted of at least five mice.

LNCaP cells = assay: Uptake and internalization in LNCaP cells; format: cell-based, human; conditions: 120 min incubation, normalized to 10^6 cells
Procedure: LNCaP prostate cancer cell line obtained from the American Type Culture Collection (ATCC, Manassas, VA) was used for cell affinity studies. […] The supernatant was disposed, and the cell pellet was resuspended in a culture medium, and LNCaP cells (150,000 cells/well) were counted with a hemocytometer and seeded in poly-L-lysine-coated 24-well plates used in cell binding studies. The cells were then allowed to grow at 37 °C for 48 h. PC3-PIP cells provided by Professor Xiaoyuan Chen (Singapore) require additional Puromycin (2 µg/ml) in addition to the appealed culture conditions.

PSMA = biological target: T1, PSMA (Homo sapiens, UniProt Q04609); assay: Competitive cell binding assay against [68Ga]Ga-PSMA-11 on LNCaP cells; conditions: competition with [68Ga]Ga-PSMA-11, natGa-labeled standards, 1 h 37 °C
T1 construct: host or cells: LNCaP
Procedure: LNCaP prostate cancer cell line obtained from the American Type Culture Collection (ATCC, Manassas, VA) was used for cell affinity studies. The cells were grown in a meilunbio RPMI 1640 medium (ATCC modified) supplemented with 10% fetal bovine serum and 1% streptomycin/penicillin (Thermo Fisher Scientific, USA) at 37 °C in a humidified 5% CO2 atmosphere. Two days (48 ± 2 h) prior to in vitro experiments, the cells were harvested using trypsin-ethylenediaminetetraacetic acid (EDTA; 0.25% trypsin, 0.02% EDTA) in PBS and centrifuged. The supernatant was disposed, and the cell pellet was resuspended in a culture medium, and LNCaP cells (150,000 cells/well) were counted with a hemocytometer and seeded in poly-L-lysine-coated 24-well plates used in cell binding studies. The cells were then allowed to grow at 37 °C for 48 h. PC3-PIP cells provided by Professor Xiaoyuan Chen (Singapore) require additional Puromycin (2 µg/ml) in addition to the appealed culture conditions. Detailed information regarding uptake and internalization experiments can be found in the previous report.
In order to determine the binding affinity, a competitive cell binding assay was performed. […] The total radioactivity in each well was measured with a gamma counter. […]

PC3-PIP tumors = assay: Micro-PET/CT blocking experiment with 2-PMPA, PC3-PIP tumor model; format: in vivo, mice; conditions: identical methodology
Procedure: (§2) To perform imaging studies, the male mice bearing LNCaP tumors were injected with the corresponding radioligand (~ 2.5 MBq; 100 μL) via their tail veins. The micro-PET/CT scans (Inveon PET, Siemens) were conducted at 10, 30, 60, and 120 min after injection. The mice were anesthetized and maintained under 2% isoflurane in oxygen at a flow rate of 2 L/min during the 2-h imaging study. First, a 10 min static PET imaging acquisition was carried out, followed by a 10 min CT scan for localization and attenuation correction. Data analysis was performed using Inveon Research Workplace software. For PC3-PIP tumor model, the imaging studies were performed with micro-PET/SPECT/CT (Inliview-3000B, Novel Medical). Data analysis was performed using Nmsoft-Al ws v1.7–1 software.
(§3) To evaluate the specificity of radioligands, blocking experiments were performed. In brief, 40 nmol of the PSMA inhibitor 2-PMPA was administered, followed by the injection of approximately 2.6 MBq of radioligands after 30 min. Then a static scan of micro-PET/CT was performed 60 min later.

[4] = system: LNCaP tumor-bearing NOD/SCID mice; conditions: mouse, in vivo
LNCaP tumors = assay: Micro-PET/CT blocking experiment with 2-PMPA, LNCaP tumor model; format: in vivo, mice; conditions: 40 nmol 2-PMPA 30 min before radioligand, static scan 60 min later
Procedure: as §2, §3

T1 sequence (Q04609 whole entry): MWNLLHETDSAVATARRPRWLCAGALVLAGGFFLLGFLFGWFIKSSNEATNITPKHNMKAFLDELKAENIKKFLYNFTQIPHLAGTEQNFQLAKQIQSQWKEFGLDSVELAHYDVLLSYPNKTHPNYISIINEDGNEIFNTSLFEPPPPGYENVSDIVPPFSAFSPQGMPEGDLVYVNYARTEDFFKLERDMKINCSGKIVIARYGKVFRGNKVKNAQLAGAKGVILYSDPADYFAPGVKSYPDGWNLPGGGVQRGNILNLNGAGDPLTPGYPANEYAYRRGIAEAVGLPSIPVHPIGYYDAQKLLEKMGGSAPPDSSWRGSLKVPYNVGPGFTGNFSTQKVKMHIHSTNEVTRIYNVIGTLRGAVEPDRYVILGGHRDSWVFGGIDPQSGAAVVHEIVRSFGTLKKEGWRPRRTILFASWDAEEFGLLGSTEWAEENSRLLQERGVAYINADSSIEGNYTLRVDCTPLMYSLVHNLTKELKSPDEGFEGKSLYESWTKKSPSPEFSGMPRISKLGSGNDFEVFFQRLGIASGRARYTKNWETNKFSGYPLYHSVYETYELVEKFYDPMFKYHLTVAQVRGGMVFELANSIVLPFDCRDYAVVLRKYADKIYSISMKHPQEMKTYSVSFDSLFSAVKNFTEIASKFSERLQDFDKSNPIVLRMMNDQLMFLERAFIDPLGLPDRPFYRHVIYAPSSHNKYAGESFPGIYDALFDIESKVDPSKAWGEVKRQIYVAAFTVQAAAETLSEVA

O=C(O)CC[C@H](NC(=O)N[C@@H](CCCCN(CC(=O)NCCOCCOCCOCCOCCNC(=O)CN1CCN(CC(=O)O)CCN(CC(=O)O)CCN(CC(=O)O)CC1)C(=O)C1c2ccccc2-c2ccccc21)C(=O)O)C(=O)O.[68Ga] [[^68Ga]Ga-PP4-WD]
Radiochemical purity after incubation in PBS [1]: 97% | Radiochemical purity after incubation in human serum [2]: 96.83 ± 0.87% | Blood uptake ([3]; 30 min p.i.): 1.07±0.47 %ID/g | Bone uptake ([3]; 30 min p.i.): 0.41±0.17 %ID/g | Brain uptake ([3]; 30 min p.i.): 0.05±0.04 %ID/g | Heart uptake ([3]; 30 min p.i.): 0.39±0.26 %ID/g | Kidney uptake ([3]; 30 min p.i.): 17.85±4.66 %ID/g | Liver uptake ([3]; 30 min p.i.): 0.36±0.14 %ID/g | Lung uptake ([3]; 30 min p.i.): 0.99±0.22 %ID/g | Muscle uptake ([3]; 30 min p.i.): 0.36±0.25 %ID/g | Salivary uptake ([3]; 30 min p.i.): 0.46±0.16 %ID/g | Small int (small intestine) uptake ([3]; 30 min p.i.): 0.33±0.15 %ID/g | Spleen uptake ([3]; 30 min p.i.): 1.06±0.89 %ID/g | Stomach uptake ([3]; 30 min p.i.): 0.44±0.18 %ID/g | Tumor uptake ([3]; 30 min p.i.): 26.49±3.34 %ID/g | Blood uptake ([3]; 60 min p.i.): 0.19±0.05 %ID/g | Bone uptake ([3]; 60 min p.i.): 0.11±0.02 %ID/g | Brain uptake ([3]; 60 min p.i.): 0.02±0.01 %ID/g | Heart uptake ([3]; 60 min p.i.): 0.06±0.01 %ID/g | Kidney uptake ([3]; 60 min p.i.): 2.96±1.04 %ID/g | Liver uptake ([3]; 60 min p.i.): 0.16±0.03 %ID/g | Lung uptake ([3]; 60 min p.i.): 0.23±0.05 %ID/g | Muscle uptake ([3]; 60 min p.i.): 0.04±0.02 %ID/g | Salivary uptake ([3]; 60 min p.i.): 0.17±0.09 %ID/g | Small int (small intestine) uptake ([3]; 60 min p.i.): 0.1±0.04 %ID/g | Spleen uptake ([3]; 60 min p.i.): 0.22±0.05 %ID/g | Stomach uptake ([3]; 60 min p.i.): 0.09±0.02 %ID/g | Tumor uptake ([3]; 60 min p.i.): 27.43 ± 1.81 %ID/g | Blood uptake ([3]; 120 min p.i.): 0.17±0.04 %ID/g | Bone uptake ([3]; 120 min p.i.): 0.08±0.03 %ID/g | Brain uptake ([3]; 120 min p.i.): 0.01±0.01 %ID/g | Heart uptake ([3]; 120 min p.i.): 0.06±0.03 %ID/g | Kidney uptake ([3]; 120 min p.i.): 1.21±0.30 %ID/g | Liver uptake ([3]; 120 min p.i.): 0.14±0.05 %ID/g | Lung uptake ([3]; 120 min p.i.): 0.13±0.07 %ID/g | Muscle uptake ([3]; 120 min p.i.): 0.04±0.03 %ID/g | Salivary uptake ([3]; 120 min p.i.): 0.08±0.03 %ID/g | Small int (small intestine) uptake ([3]; 120 min p.i.): 0.07±0.03 %ID/g | Spleen uptake ([3]; 120 min p.i.): 0.13±0.10 %ID/g | Stomach uptake ([3]; 120 min p.i.): 0.06±0.03 %ID/g | Tumor uptake ([3]; 120 min p.i.): 19.42±4.00 %ID/g | Internalization in LNCaP cells (LNCaP cells): 9.36 ± 1.70% | Uptake in LNCaP cells (LNCaP cells): 26.30 ± 2.06% | IC50 (PSMA): 8.06 ± 0.91 nM | Outcome of blocking imaging with 2-PMPA (PC3-PIP tumors): in concordance with those observed in the LNCaP tumor model | Renal uptake reduced by a factor compared to [68Ga]Ga-Flu-1 [4]: 40 | Renal uptake, fold less compared to [68Ga]Ga-Flu-1 [4]: tenfold | Bone uptake ([4]; 0.5 h): 0.36±0.09 %ID/g | Tumor uptake ([4]; 0.5 h): 33.45 ± 3.40 %ID/g | Bone uptake ([4]; 1 h): 0.39±0.22 %ID/g | Tumor uptake ([4]; 1 h): 39.28 ± 3.25 %ID/g | Bone uptake ([4]; 2 h): 0.26±0.06 %ID/g | Tumor uptake ([4]; 2 h): 25.75 ± 2.43 %ID/g | Radioactivity upon blocking with 2-PMPA (LNCaP tumors): substantially reduced radioactivity
